Measured values from US20180057530A1, “CYCLIC PEPTIDE COMPOUND, AND PREPARATION AND USE THEREOF” (Zhejiang Hisun Pharmaceutical Co., Ltd., priority 2015, published 2018).

Tests used:
[1] = system: Human breast cancer cells (MDA-MB-231); experiment: MTT tumor cell growth inhibition, MDA-MB-231; type: cell-based; conditions: MDA-MB-231, MTT, 72 hours, relative IC50
Source text: (§1) The tetrazolium salt (MTT) reduction method was used to test the activity of the compounds of the present invention. Human breast cancer cells (MDA-MB-231) (CAS cell library; catalog number: TCHu227), human lung cancer cells (A549) (ATCC® Number: CRM-CCL-185™), human colon cancer cells (HCT-116) (CAS cell library; catalog number: TCHu99), acute monocytic leukemia cells (MV4-11) (ATCC® Number: CRL-9591™), tissue cell lymphoma cells (U-937) (CAS cell library; catalog number: TCHu159), human acute promyelocytic leukemia cells (HL-60) (ATCC® Number: CCL-240™), chronic myelogenous leukemia cells (of K562) (CAS cell library; catalog number: TCHu191), human hepatocellular carcinoma cells (BEL-7404) (CAS cell library; catalog number: TCHu64), human pancreatic cancer cells (BxPC3) (ATCC® Number: […])) and human prostate cancer cells (PC-3) (ATCC®Number: […]) were inoculated in 96-well plates, 90 μL/well, with 3000 to 8000 cells in respective well; in the first row of plate, 100 μL/well culture medium was added; the 96-well plate was pre-incubated in an incubator at 37° C., 5% CO2, and 100% relative humidity for 24 hours.
(§2) A compound was weighed and configured to a 10 mM/L stock solution, and the compound was diluted three-fold sequentially from the highest concentration of 2 millimoles (mM); 95 μl the corresponding cell medium was added to each well of a V-bottom dispensing plate; 5 μl of the compound on a 200× plate was transferred to a 10× dispensing plate according to the concentration; 5 μl of dimethylsulfoxide (DMSO) was evenly mixed in the corresponding 95 μl cell culture medium as a vehicle control. 10 μl of the compound-medium in each well of the 10× dispensing plate was added to a 96-well plate already plated with cells. […]
(§3) After the compound for cells was treated for 72 hours, 20 microliters of 5 mg/ml MTT was added to each well; all the steps need to be aseptic. […] The absorbance at 490 nm was read on a SpectraMax M2e instrument. The compound activity (relative IC50) was calculated using GraphPad Prism software.

[2] = system: human lung cancer cells (A549); experiment: MTT tumor cell growth inhibition, A549; type: cell-based; conditions: 72 hours, relative IC50
Source text: as §1, §2, §3

[3] = system: human colon cancer cells (HCT-116); experiment: MTT tumor cell growth inhibition, HCT-116; type: cell-based; conditions: HCT-116, MTT, 72 hours, relative IC50
Source text: as §1, §2, §3

[4] = system: acute monocytic leukemia cells (MV4-11); experiment: MTT tumor cell growth inhibition, MV4-11; type: cell-based; conditions: Homo sapiens; MV4-11, MTT, 72 hours, relative IC50
Source text: as §1, §2, §3

[5] = system: tissue cell lymphoma cells (U-937); experiment: MTT tumor cell growth inhibition, U-937; type: cell-based; conditions: Homo sapiens; U-937, MTT, 72 hours, relative IC50
Source text: as §1, §2, §3

[6] = system: human acute promyelocytic leukemia cells (HL-60); experiment: MTT tumor cell growth inhibition, HL-60; type: cell-based; conditions: HL-60, MTT, 72 hours, relative IC50
Source text: as §1, §2, §3

[7] = system: chronic myelogenous leukemia cells (K562); experiment: MTT tumor cell growth inhibition, K562; type: cell-based; conditions: Homo sapiens, 72 hours, relative IC50
Source text: as §1, §2, §3

[8] = system: human hepatocellular carcinoma cells (BEL-7404); experiment: MTT tumor cell growth inhibition, BEL-7404; type: cell-based; conditions: BEL-7404, MTT, 72 hours, relative IC50
Source text: as §1, §2, §3

[9] = system: human pancreatic cancer cells (BxPC3); experiment: MTT tumor cell growth inhibition, BxPC3; type: cell-based; conditions: BXPC-3, 72 hours, relative IC50
Source text: as §1, §2, §3

[10] = system: human prostate cancer cells (PC-3); experiment: MTT tumor cell growth inhibition, PC-3; type: cell-based; conditions: PC-3, MTT, 72 hours, relative IC50
Source text: as §1, §2, §3

tumor cells = experiment: MTT tumor cell growth inhibition, summary over the cell line panel; type: cell-based; conditions: ten tumor cell lines of Table 2, MTT, 72 hours; read-out: IC50 of tumor cell proliferation inhibition, span over the tested cell lines
Source text: as §1, §2, §3

[11] = system: Human breast cancer cell line MDA-MB-231; experiment: In vivo pharmacodynamic study of compound A, MDA-MB-231 nude mice transplanted tumor model; set-up: species or system BALB/C nude mice; conditions: MDA-MB-231 model, q4d, 4x
Experimental: (§4) Female BALB/C nude mice 6 weeks to 8 weeks old and weighing about 19 g to 29 g were taken (Supplier: Beijing Vital River Laboratory Animal Technology Co., Ltd.) and raised for a week. A human cancer nude mice […] transplanted tumor model was established: Human breast cancer cell line MDA-MB-231 (ATCC® Number: HTB-26™) and human lung cancer cell line NCI-H460 (ATCC® Number: HTB-177™) were incubated. The monolayer tumor cells were digested and detached; then, they were collected and resuspended in a serum-free culture medium, and then were adjusted to a concentration of 2×10^6/0.2 mL. They were put into an iced box and brought to an animal house. A syringe with a No. 6 needle was used to directly take a 0.2 mL cell suspension and transplanted it into the rear subcutaneous scapular regions of the left axillaries of the nude mice at 2×10^6/0.2 mL per mouse. Tumor volumes were measured once every 2 days to 3 days. After two weeks, tumor-bearing nude mice with vigorous tumor growth and no ulceration were selected, the tumors were removed from them under sterile conditions. The tumor tissues were cut to about 2 mm to 3 mm in diameter and inoculated in the rear subcutaneous scapular regions of the left axillaries of the nude mice. After passage for three generations, when the tumor volume grew to 100 mm^3, nude mice with tumor masses that were too large or too small were removed and randomly grouped for administration.
(§5) The mice were randomly divided into five groups, including the negative control group (vehicle), positive control group (Romidepsin, 2.4 mg/kg), treatment group with the high, medium, and low doses of compound A (respectively 7.2 mg/kg, 4.8 mg/kg, 2.4 mg/kg, wherein the high dose was lower than the maximum tolerated dose, MTD); there were six nude mice in each group; intravenous administration was given every 4 days; 4 doses were given. During the period, the weights and tumor volumes of the animals were measured every 2 days, and the number of animal deaths was recorded. 24 hours after the last administration, the animals were sacrificed. The tumor volumes, tumor weights, and body weights of nude mice were measured; tumor volume growth curves, nude mice weight growth curves and tumor inhibition rates, mortality of the animals were plotted; the relative tumor proliferation rate T/C (%) was calculated; according to the formula T/C (%)=TRTV/CRTV*100%. (TRTV: treatment group RTV; CRTV: negative control group RTV, relative tumor volume RTV=Vt/V0, wherein V0 is the tumor volume at the time of administration by group; Vt is the post-administration tumor volume).

[12] = system: human lung cancer cell line NCI-H460; experiment: In vivo pharmacodynamic study of compound A, NCI-H460 nude mice transplanted tumor model; set-up: species or system BALB/C nude mice; conditions: q4d, 4x
Experimental: as §4, §5

blood cells = experiment: Effect on blood phase, complete blood count (CBC) analysis; type: in vivo, BAB-C mice; conditions: mouse, in vivo, 0.5 mg/kg
Experimental: BAB-C mice (6 to 8 weeks old, a half being males and the other half females, weighing about 18 g-25 g, supplier: Beijing Vital River Laboratory Animal Technology Co., Ltd.) were raised for one week and then divided into three groups: normal control group, Romidepsin group, and compound A group. The normal group was injected with the vehicle; the drug group was injected with 0.5 mg/kg of the drug; 24 hours and 48 hours respectively after administration, a complete blood count (CBC) analysis was performed; for all the data, mean±standard deviation (mean±SD) was adopted; T tests were performed between inter-group data.

MDA-MB-231 breast cancer = experiment: In vivo efficacy study of compound B, xenografted MDA-MB-231 breast cancer; set-up: species or system BALB/c nude mice; conditions: once a week for four weeks; for Day 28 tumor volume: mean ± standard error
Experimental: Female BALB/C nude mice 6 weeks to 8 weeks old and weighing about 19 g to 29 g were taken and raised for one week (supplier: Beijing Vital River Laboratory Animal Technology Co., Ltd.) MDA-MB-231 (ATCC® Number: HTB-26™) breast cancer cells were cultured in vitro; the culture conditions were: 10% fetal bovine serum was added to an L-15 medium, 37° C., and 0% CO2. Passage was performed twice a week. When the cells were in the exponential growth phase, the cells were collected, counted, and inoculated. […] The cells were suspended in phosphate buffered saline (PBS) and Matrigel (1:1) was added. A total of 50 mice were inoculated. […] The experimental indicator was to examine whether the tumor growth was inhibited, delayed, or subsided. Tumor diameter was measured three times a week with a vernier caliper. The formula for calculating tumor volume is as follows: […] The antitumor efficacy of the compound was evaluated with T/C (%) and of TGI. […] T0 indicates the mean tumor volume of the treatment group at the time of administration by cage; Vi indicates the mean tumor volume of the vehicle group on the same day; V0 indicates the mean tumor volume of the vehicle group at the time of administration by cage. At the end of the experiment, the tumors were stripped, weighed, and photographed.

Row | SMILES | IC50 [1] [nM] | IC50 [2] [nM] | IC50 [3] [nM] | IC50 [4] [nM] | IC50 [5] [nM] | IC50 [6] [nM] | IC50 [7] [nM] | IC50 [8] [nM] | IC50 [9] [nM] | IC50 [10] [nM] | IC50 (tumor cells) [nM] | also measured
1 | C/C=C1\NC(=O)[C@H]2C[S+]([O-])SCC/C=C/[C@H](CC(=O)N[C@H](C(C)C)C(=O)N2)OC(=O)[C@H](C(C)C)NC1=O (stereo partly drawn) [Compound A] | 9.7 | 10.7 | 29.3 | 33 | 22.8 | 35.9 | 23.2 | 10 | 13.9 | 11.9 | 9.7 to 35.9 | Relative tumor proliferation rates T/C (%) ([11]; 2.4 mg/kg): 45.5%(2.4 mg/kg, q4d, 4x); Relative tumor proliferation rates T/C (%) ([11]; 4.8 mg/kg): 35.4%(4.8 mg/kg, q4d, 4x); Relative tumor proliferation rates T/C (%) ([11]; 7.2 mg/kg): 29.8%(7.2 mg/kg, q4d, 4x); Relative tumor proliferation rates T/C (%) ([12]; 2.4 mg/kg): 44%(2.4 mg/kg, q4d, 4x); Relative tumor proliferation rates T/C (%) ([12]; 4.8 mg/kg): 38.6%(4.8 mg/kg, q4d, 4x); Relative tumor proliferation rates T/C (%) ([12]; 7.2 mg/kg): 25.2%(7.2 mg/kg, q4d, 4x); PLT compared with the normal group (blood cells): significantly decreased; WBCs compared with the normal group (blood cells): no significant difference compared with the normal group
2 | C/C=C1\NC(=O)[C@H]2CS[S+]([O-])CC/C=C/[C@H](CC(=O)N[C@H](C(C)C)C(=O)N2)OC(=O)[C@H](C(C)C)NC1=O (stereo partly drawn) [Compound B] | 2 | 3.6 | 6.1 | 4.8 | 5.4 | 3.4 | 2.6 | 4.9 | 6.5 | 6.1 | 2 to 6.5 | Day 28 tumor volume (MDA-MB-231 breast cancer; 2.2 mg/kg intravenous): 259 ± 47 mm^3; Day 28 tumor volume (MDA-MB-231 breast cancer; 2.2 mg/kg intravenous, listed as compound B): 259 mm^3; Day 28 tumor volume (MDA-MB-231 breast cancer; 4.4 mg/kg intravenous): 202 ± 38 mm^3; Day 28 tumor volume (MDA-MB-231 breast cancer; 4.4 mg/kg intravenous, listed as compound B): 202 mm^3; Day 28 tumor volume (MDA-MB-231 breast cancer; 6.6 mg/kg intravenous): 187 ± 29 mm^3; Day 28 tumor volume (MDA-MB-231 breast cancer; 6.6 mg/kg intravenous, listed as compound B): 187 mm^3; T/C (%) (MDA-MB-231 breast cancer; day 28, 2.2 mg/kg intravenous): 11.3%; TGI (%) (MDA-MB-231 breast cancer; day 28, 2.2 mg/kg intravenous): 88.7%; T/C (%) (MDA-MB-231 breast cancer; day 28, 4.4 mg/kg intravenous): 5.9%; TGI (%) (MDA-MB-231 breast cancer; day 28, 4.4 mg/kg intravenous): 94.1%; T/C (%) (MDA-MB-231 breast cancer; day 28, 6.6 mg/kg intravenous): 4.5%; TGI (%) (MDA-MB-231 breast cancer; day 28, 6.6 mg/kg intravenous): 95.5%
